Molecules are shown by their SMILES.

The target in assay [1] is neuraminidase (NA) of influenza A(H3N2) virus A/YOKOHAMA/87/2019 (Influenza A virus, UniProt A0A193ACB1). Type of assay: biochemical.
The target in assay [2] is neuraminidase (NA) of influenza A(H3N2) virus A/YOKOHAMA/88/2019 (Influenza A virus, UniProt A0A193ACB1). Type of assay: biochemical.

Consider `CCC(CC)[C@H](NC(C)=O)[C@@H]1[C@H](O)[C@@H](C(=O)O)C[C@H]1N=C(N)N` [Peramivir, peramivir], for which the “WHO criteria (fold change of IC50 compared with reference IC50)” value in assay [1] is reported as 0.16 (NI) (key: NI: normal inhibition); in assay [2], 0.13 (NI) (key: NI: normal inhibition).
